Experiment [1] deals with T1, heme oxygenase-1 (HO-1) (Homo sapiens, UniProt P09601).
T1 construct: gene HMOX1; Luc-HO-1 (N-terminal luciferase fusion); with cytochrome P450 reductase (CPR-GFP)
T1 sequence (P09601 1-288): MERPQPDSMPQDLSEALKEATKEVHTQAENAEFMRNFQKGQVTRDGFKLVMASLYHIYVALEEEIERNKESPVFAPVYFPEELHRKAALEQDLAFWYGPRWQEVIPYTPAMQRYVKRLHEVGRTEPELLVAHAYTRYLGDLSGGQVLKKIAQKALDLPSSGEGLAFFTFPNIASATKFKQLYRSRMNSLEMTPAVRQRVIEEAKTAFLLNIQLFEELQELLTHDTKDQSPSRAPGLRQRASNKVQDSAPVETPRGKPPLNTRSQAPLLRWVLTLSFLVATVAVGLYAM
T1 sequence (P16435 2-677 partner): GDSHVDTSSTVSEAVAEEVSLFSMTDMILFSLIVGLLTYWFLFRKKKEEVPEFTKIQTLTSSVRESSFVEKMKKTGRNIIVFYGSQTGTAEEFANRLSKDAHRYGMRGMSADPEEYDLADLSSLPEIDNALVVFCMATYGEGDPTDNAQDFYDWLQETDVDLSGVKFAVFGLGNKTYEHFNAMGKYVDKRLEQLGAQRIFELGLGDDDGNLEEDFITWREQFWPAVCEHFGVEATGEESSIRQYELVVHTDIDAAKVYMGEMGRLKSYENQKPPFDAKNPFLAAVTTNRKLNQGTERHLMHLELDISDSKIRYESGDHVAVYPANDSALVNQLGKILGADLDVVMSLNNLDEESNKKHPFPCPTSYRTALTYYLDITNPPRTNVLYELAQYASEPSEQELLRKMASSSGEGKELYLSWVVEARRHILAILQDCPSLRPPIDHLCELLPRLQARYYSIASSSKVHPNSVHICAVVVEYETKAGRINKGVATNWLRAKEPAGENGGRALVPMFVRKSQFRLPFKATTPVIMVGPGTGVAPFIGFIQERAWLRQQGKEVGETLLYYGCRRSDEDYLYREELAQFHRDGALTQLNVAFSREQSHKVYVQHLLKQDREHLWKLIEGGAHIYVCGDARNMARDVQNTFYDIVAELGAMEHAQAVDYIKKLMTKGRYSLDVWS
Briefly: cell-based BRET inhibition of HO-1/CPR interaction in HEK293T.

The target of experiment [2] is T2, heme oxygenase-1 (HO-1) (Homo sapiens, UniProt P09601).
T2 construct: gene HMOX1; truncated human HO-1 (aa 13–260), C-terminal 6 x His-tag (pull-down); Luc-HO-1 (BRET); with cytochrome P450 reductase (CPR-GFP)
T2 sequence (P09601 13-260): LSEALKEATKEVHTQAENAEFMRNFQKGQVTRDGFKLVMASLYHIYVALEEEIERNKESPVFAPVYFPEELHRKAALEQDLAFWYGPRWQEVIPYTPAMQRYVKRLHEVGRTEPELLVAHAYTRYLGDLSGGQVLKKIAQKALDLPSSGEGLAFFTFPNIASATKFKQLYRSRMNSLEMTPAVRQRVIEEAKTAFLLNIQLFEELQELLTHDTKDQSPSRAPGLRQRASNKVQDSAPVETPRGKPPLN
T2 sequence (P16435 2-677 partner): T1 sequence (P16435 2-677 partner)
Briefly: pull-down of purified His-HO-1 by resin-bound CPR-GFP ([…] danthron); IC50 from cell-based BRET.

For experiment [3], the target named is T3, CPR construct with its carboxyl-terminus fused to GFP (CPR-GFP) (human, UniProt P16435 1-677).
T3 construct: human cytochrome P450 reductase (CPR) cDNA subcloned with GFP2 cDNA into a pCMV-2 vector; BRET acceptor; bait on anti-GFP Sepharose in the pull-down; also called cytochrome P450 reductase; source: HEK293T, transfected; not shown: GFP2, C-terminal, kept
T3 sequence (looked up): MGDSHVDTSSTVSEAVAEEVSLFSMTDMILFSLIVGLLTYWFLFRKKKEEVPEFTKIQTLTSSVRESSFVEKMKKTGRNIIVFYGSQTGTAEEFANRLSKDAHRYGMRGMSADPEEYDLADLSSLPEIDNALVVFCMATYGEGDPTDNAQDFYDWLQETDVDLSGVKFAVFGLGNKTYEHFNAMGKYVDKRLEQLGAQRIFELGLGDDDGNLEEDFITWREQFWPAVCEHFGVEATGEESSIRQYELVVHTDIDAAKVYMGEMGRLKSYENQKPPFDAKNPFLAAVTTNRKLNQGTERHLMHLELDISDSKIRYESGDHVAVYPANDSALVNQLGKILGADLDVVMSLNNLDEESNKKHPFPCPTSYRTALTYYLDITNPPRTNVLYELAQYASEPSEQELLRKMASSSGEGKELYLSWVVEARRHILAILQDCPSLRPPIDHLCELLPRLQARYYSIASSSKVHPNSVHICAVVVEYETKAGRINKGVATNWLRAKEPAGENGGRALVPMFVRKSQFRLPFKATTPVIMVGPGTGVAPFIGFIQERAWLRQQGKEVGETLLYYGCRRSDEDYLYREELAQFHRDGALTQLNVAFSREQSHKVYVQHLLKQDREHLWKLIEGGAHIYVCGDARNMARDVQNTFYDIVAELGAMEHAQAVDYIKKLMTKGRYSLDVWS
Put plainly: pull-down; CPR-GFP immunoprecipitated from HEK293T lysate on anti-GFP-affinity Sepharose, washed, incubated with 1 ug His-HO-1 or His-HO-2 in 100 ul buffer A (20 mM Tris-HCl pH 7.4, 100 mM NaCl) at room temperature for 1 h, without or with 10 uM danthron or anthrarufin; blot with anti-His and anti-GFP. The settings on record: both partners purified.

The source of these data is PMC5781335, “Identification of danthron as an isoform-specific inhibitor of HEME OXYGENASE-1/cytochrome P450 reductase interaction with anti-tumor activity” (Journal of Biomedical Science, 2018).

Molecule `O=C1c2ccccc2C(=O)c2c(O)cccc21` [1-hydroxyanthra-9,10-quinone] showed an IC50 against heme oxygenase-1 (HO-1) [1] of 10.1 µM. The molecule `O=C1c2cccc(O)c2C(=O)c2c(O)cccc21` [danthron] came in with a 50% inhibitory concentration (IC50) against heme oxygenase-1 (HO-1) [2] of 2.09 µM. The molecule `O=C1c2cccc(O)c2C(=O)c2c(O)ccc(O)c21` [1,4,5-trihydroxyanthra-9,10-quinone] returned an IC50 against heme oxygenase-1 (HO-1) [1] of 10.4 µM.

B1: recombinant soluble His-tagged HO-2 (His-HO-2), human HO-2 construct (aa 33-288) (domain or fragment, UniProt P30519 33-288, looked up)
chain: LSELLKEGTKEAHDRAENTQFVKDFLKGNIKKELFKLATTALYFTYSALEEEMERNKDHPAFAPLYFPMELHRKEALTKDMEYFFGENWEEQVQCPKAAQKYVERIHYIGQNEPELLVAHAYTRYMGDLSGGQVLKKVAQRALKLPSTGEGTQFYLFENVDNAQQFKQLYRARMNALDLNMKTKERIVEEANKAFEYNMQIFNELDQAGSTLARETLEDGFPVHDGKGDMRKCPFYAAEQDKGALEGSSCPFRTAM
notes: human heme oxygenase-2, construct aa 33-288, in pQE-60 vector; not shown: His6, C-terminal, kept
For B1, in experiment [3], the binding result was “binds”.
